# Data taken from patent publication US12442827B2 (UNIVERSITY OF NORTH TEXAS HEALTH SCIENCE CENTER AT FORT …, priority 2019, dated 2025).
# B1: PIP: hormonally regulated protein, a 17-kDa glycoprotein (protein, UniProt P12273 29-146, looked up)
# Prolactin-inducible protein: QDNTRKIIIKNFDIPKSVRPNDEVTAVLAVQTELKECMVVKTYLISSIPLQGAFNYKYTACLCDDNPKTFYWDFYTNRTVQIAAVVDVIRELGICPDDAAVIPIKNNRFYTIEILKVE
# Key:
# Type in all cases: cell-based, human
# HCFs = assay: LH/FSH ratio in 3D constructs after DHEA, Estrone, Estriol stimulation (Western blot); settings: HCFs (cells from Healthy individuals), 4 weeks, FIGS. 9A to 9C
# Source text: (§1) In FIGS. 9A to 9C, healthy corneas were obtained from the National Disease Research Interchange (NDRI). KC corneas were obtained from individuals immediately following corneal transplantation. Inclusion/exclusion criteria for healthy controls required absence of ophthalmic disease, diabetes, or infectious conditions. Tissue from KC patients who had previously undergone collagen crosslinking was excluded. Corneal stromal cells were isolated from healthy (HCFs) and KC (HKCs) corneas. Both HCFs and HKCs were isolated as previously described. Briefly, using a surgical scalpel, the corneal epithelium and endothelium were removed. The corneal stroma was then washed in sterile PBS, cut into small pieces (approximately 2×2 mm), and placed into flasks; the cells were then allowed to adhere. Explants were grown for 2-4 weeks at 37° C./5% CO2/95% relative humidity, using Eagle's Minimum Essential Media (EMEM) supplemented with 10% fetal bovine serum (Atlanta Biologicals, Flowery Branch, GA, USA), and antibiotic/antimycotic (Anti/Anti, Life Technologies, Grand Island, NY, USA). Once confluent, cells were isolated following trypsinization, subcultured, or frozen using standard cryoprotective protocols. Three-dimensional constructs: —HCFs and HKCs were plated at a density of 1×10^6 cells/well on six-well size polycarbonate membrane inserts with 0.4-μm pores (VWR, Radnor, PA, USA). The cells were cultured in EMEM containing 10% FBS, 1% antibiotic, and stimulated with a stable Vitamin C derivative (0.5 mM 2-O-α-D-glucopyranosyl-L-ascorbic acid: Sigma-Aldrich, St. Louis, MO, USA). Cultures were grown for a total of 4 weeks and fresh media was supplied every other day for the duration of the study. Protein extraction and further analysis occurred at the 4-week timepoint.
# (§2) All cultures were collected and washed twice with PBS, and total protein was isolated using 1× radioimmunoprecipitation assay (RIPA) buffer (50 mM Tris pH 8, 150 mM NaCl, 1% Triton X-100, and 0.1% SDS) containing a protease inhibitor cocktail (Sigma-Aldrich, St. Louis, MO, USA). Cell lysates were centrifuged at 4° C., and the supernatant was isolated and subjected to a Pierce BCA Protein assay (ThermoScientific, Rockford, IL, USA) for protein concentration quantification. Novex 4-20% Tris-glycine mini WedgeWell format 12-well gels (FisherScientific, Hampton, NH, USA) were electrophoresed at 130 V for 1.5 h, and transferred onto a nitrocellulose membrane at 100 V for 1 hour on ice. B lots were blocked in 5% dry milk (Great Value, Bentonville, AR, USA) for 1 h, at room temperature, with shaking. […] Results were analyzed by normalizing values to the expression of housekeeping antibody β-Actin (Abcam, Cambridge, MA, USA).
# HKCs = assay: as above; settings: HKCs (cells from Keratoconus patients), 4 weeks, FIGS. 9A to 9C
# Source text: as §1, §2
# Healthy cells (HCFs) = assay: LH/FSH ratio after PIP treatment (Western blot); settings: PIP 50-500 ng/ml, 48 hours, in a concentration dependent manner, FIG. 12
# Protocol: (§3) In FIG. 12, HCFs and HKCs were seeded in 12-well plates at 5×10^5 cells/well in regular media. 24 hours later media was replaced for treatment media (regular media supplemented with the treatment). The treatments consisted on five different concentrations of PIP: 50 ng/ml, 100 ng/ml, 200 ng/ml, 350 ng/ml and 500 ng/ml at a number of four wells per treatment. After 48 hours treatment finished and all the wells were wash with PBS and proteins were extracted using 1 ml of RIPA buffer 1×. Bradford assay (Thermo scientific, IL, USA) was carried out to determine the protein concentration and normalize the samples. For western blot analysis samples were mixed with loading buffer and equal amounts of protein were loaded (25 μg per lane) on a 4-20% Tris-Glycine gel (Novex, Life technologies, Carlsbad, CA) and electrophoresed at 135-140V for 1.5 hour. Each sample was run single. T hereafter, the gel was transferred on to a nitrocellulose membrane (Novex, Nitrocellulose membrane, Life Technologies, Carlsbad, CA), at 100V for 1 hour on ice. Finally, the membranes were blocked in milk (5% milk in TBST; Thermo scientific, IL, USA) for 1 hour and incubated overnight in the rocker at 4° C. with the primary antibody at 1:250 dilution. […] GAPDH (rabbit polyclonal ab9485, Abcam, Cambridge, MA) was used as housekeeping for all the targets at a dilution of 1:1000. […]
# KC cells (HKCs) = assay: LH/FSH ratio after PIP treatment (Western blot); settings: PIP 50-500 ng/ml, 48 hours, in a concentration dependent manner, FIG. 12
# Protocol: as §3
Molecule,LH/FSH ratio modulated in vitro (HCFs),LH/FSH ratio modulated in vitro (HKCs),LH/FSH ratio modulation (Healthy cells (HCFs)),LH/FSH ratio modulation (KC cells (HKCs))
C[C@]12CC[C@@H]3c4ccc(O)cc4CC[C@H]3[C@@H]1C[C@@H](O)[C@@H]2O [Estriol],moving towards a disease-phenotype,“recovering” towards a healthy phenotype,–,–
C[C@]12CC[C@H](O)CC1=CC[C@@H]1[C@@H]2CC[C@]2(C)C(=O)CC[C@@H]12 [DHEA],moving towards a disease-phenotype,“recovering” towards a healthy phenotype,–,–
B1,–,–,modulated,modulated
